Test results: ChEMBL document CHEMBL1201862, “PubChem BioAssay data set” (2004)
The source made the active and inactive calls.

Key:
[1] = molecular target: T1, Calpain-2 catalytic subunit (Sus scrofa, UniProt P43367); assay: pig calpain II inhibitor potency, dose response, biochemical, fluorogenic peptide substrate (AID 1420); assay type: functional
T1 sequence (P43367 whole entry): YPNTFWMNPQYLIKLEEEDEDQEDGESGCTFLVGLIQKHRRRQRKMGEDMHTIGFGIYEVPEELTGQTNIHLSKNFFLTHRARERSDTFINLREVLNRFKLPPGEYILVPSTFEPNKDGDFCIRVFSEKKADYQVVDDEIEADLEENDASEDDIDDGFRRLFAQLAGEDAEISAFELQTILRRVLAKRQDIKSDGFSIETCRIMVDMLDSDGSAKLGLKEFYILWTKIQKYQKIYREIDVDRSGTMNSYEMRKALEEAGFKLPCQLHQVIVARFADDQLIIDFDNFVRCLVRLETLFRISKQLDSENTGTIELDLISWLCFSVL

[2] = molecular target: T2, Short transient receptor potential channel 4 (Mus musculus, UniProt Q9QUQ5); assay: mouse TRPC4 channel inhibitors, dose response, cell-based, HEK293 TRPC4/mu-opioid, Fluo-4 calcium (AID 434942); assay type: functional;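 further: potency of inhibitors blocking the TRPC4 calcium response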
T2 sequence (Q9QUQ5 whole entry): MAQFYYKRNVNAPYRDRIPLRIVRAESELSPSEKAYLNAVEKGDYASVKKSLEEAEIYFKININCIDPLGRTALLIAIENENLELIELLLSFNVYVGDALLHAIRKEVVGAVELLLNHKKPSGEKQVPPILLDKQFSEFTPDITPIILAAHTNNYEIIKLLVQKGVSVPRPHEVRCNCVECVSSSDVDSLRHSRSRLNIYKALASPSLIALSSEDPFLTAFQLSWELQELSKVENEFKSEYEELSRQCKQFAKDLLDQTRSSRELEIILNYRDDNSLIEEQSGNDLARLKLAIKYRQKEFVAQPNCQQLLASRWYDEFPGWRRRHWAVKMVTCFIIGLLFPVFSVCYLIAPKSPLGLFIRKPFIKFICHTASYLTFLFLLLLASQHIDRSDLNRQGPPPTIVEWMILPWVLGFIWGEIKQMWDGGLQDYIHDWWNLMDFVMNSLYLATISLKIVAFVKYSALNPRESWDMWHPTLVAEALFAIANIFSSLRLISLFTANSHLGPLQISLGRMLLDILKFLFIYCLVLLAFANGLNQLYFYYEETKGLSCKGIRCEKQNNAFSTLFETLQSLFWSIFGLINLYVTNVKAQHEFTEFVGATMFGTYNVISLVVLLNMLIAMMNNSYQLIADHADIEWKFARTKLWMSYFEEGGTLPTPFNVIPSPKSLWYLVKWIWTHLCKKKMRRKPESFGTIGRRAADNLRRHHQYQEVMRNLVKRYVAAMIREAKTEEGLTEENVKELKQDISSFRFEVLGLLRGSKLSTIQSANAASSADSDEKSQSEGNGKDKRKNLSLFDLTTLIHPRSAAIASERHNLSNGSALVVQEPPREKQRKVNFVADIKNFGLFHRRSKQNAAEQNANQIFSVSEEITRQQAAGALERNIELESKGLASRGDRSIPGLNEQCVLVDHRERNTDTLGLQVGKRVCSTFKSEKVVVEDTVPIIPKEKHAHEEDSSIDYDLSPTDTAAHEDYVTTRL

[3] = molecular target: T3, Sentrin-specific protease 8 (Homo sapiens, UniProt Q96LD8); assay type: functional;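 further: luminescence read-out of SENP8 inhibition, dose-response confirmation following an ultra-high-throughput screen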
T3 sequence (Q96LD8 whole entry): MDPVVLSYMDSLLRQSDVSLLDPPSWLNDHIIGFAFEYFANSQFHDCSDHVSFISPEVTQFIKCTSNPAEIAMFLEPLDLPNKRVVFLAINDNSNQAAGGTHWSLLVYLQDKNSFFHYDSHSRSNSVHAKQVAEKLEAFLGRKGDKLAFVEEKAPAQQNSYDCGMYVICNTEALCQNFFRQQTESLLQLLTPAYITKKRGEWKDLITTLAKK

Caspase-3 = molecular target: T4, Caspase-3 (Homo sapiens, UniProt P42574); assay type: functional;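 further: Dose-response selectivity test against caspase-3 for candidate inhibitors of sentrin-specific proteases (SENPs)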
T4 sequence (P42574 whole entry): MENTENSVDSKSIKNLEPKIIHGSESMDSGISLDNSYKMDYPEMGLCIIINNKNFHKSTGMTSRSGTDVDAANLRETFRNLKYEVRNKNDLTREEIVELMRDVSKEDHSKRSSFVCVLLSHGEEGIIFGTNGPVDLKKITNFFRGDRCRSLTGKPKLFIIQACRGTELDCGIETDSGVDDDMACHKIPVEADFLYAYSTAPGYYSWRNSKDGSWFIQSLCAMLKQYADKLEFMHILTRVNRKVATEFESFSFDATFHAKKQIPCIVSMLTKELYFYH

[4] = molecular target: T5, Sentrin-specific protease 7 (Homo sapiens, UniProt Q9BQF6); assay type: functional;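 further: Luminescence-based dose-response confirmation of ultra-high-throughput screening hits, measuring inhibition of SENP7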
T5 sequence (Q9BQF6 whole entry): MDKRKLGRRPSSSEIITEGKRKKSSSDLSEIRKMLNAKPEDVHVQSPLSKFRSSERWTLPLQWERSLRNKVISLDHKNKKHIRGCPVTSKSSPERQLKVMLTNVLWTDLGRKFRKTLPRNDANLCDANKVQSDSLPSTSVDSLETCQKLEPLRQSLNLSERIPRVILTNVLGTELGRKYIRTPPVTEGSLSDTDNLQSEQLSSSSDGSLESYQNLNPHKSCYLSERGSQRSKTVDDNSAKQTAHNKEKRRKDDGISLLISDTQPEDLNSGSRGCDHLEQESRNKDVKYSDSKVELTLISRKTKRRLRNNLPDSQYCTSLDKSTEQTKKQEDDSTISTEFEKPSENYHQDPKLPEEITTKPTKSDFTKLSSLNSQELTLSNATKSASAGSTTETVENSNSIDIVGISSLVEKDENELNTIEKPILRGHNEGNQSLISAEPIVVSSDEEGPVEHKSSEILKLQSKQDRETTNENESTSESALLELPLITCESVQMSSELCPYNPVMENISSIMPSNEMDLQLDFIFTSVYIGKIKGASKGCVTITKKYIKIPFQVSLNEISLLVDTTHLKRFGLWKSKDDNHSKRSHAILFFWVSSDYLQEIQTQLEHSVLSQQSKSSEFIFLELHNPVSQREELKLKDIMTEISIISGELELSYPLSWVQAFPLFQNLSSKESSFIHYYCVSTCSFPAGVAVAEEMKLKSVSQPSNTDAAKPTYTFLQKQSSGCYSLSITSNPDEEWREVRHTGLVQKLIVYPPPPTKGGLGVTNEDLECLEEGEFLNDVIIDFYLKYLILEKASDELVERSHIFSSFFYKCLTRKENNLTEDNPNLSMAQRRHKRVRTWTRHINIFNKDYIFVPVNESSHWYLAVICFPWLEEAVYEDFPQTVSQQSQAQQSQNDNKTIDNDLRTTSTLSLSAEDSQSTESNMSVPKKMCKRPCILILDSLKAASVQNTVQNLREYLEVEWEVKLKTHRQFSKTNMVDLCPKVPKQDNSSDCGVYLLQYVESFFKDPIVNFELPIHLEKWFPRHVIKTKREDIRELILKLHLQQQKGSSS

[5] = molecular target: T6, Sentrin-specific protease 6 (Homo sapiens, UniProt Q9GZR1); assay type: functional;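 further: Luminescence-based dose-response confirmatory assay of SENP6 inhibition, following up an ultra-high-throughput screen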
T6 sequence (Q9GZR1 whole entry): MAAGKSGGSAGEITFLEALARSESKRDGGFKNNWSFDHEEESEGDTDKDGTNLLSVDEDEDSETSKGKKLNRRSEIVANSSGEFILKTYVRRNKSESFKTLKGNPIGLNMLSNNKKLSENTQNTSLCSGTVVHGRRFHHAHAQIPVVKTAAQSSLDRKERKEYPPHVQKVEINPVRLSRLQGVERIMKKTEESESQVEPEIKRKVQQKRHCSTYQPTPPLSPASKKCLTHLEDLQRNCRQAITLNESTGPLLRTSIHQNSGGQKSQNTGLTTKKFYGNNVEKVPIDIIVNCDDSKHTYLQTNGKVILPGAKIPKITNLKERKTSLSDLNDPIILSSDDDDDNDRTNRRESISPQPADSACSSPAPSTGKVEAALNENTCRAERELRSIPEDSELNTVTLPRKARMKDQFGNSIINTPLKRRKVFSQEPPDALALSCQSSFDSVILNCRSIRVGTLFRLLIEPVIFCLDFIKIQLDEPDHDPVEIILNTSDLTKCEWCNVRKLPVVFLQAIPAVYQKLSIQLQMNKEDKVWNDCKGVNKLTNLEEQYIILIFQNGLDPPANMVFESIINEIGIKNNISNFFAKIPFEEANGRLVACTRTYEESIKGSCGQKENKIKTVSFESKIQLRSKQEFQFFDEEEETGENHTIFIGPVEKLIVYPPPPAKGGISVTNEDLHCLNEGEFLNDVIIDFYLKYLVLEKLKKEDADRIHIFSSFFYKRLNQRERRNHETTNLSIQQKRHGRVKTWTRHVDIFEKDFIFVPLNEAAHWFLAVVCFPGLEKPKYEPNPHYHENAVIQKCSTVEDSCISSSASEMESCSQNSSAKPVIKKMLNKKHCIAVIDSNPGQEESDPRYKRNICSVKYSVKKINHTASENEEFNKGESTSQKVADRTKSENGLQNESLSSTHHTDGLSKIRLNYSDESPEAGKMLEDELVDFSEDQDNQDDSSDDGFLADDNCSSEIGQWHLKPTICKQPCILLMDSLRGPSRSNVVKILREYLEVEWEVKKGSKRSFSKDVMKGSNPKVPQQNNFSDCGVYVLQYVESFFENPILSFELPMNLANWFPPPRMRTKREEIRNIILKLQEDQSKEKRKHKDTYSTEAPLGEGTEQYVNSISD

[6] = Luminescence Cell-Based Dose Response HTS to Identify Inhibitors of 5'UTR Stem-Loop Driven Prion Protein mRNA Translation in H4 Neuroglioblastoma Cells. [Related pubchem assays: 1827 (Project Summary), 1813 (Primary HTS)]; assay type: functional
[7] = inhibitors of firefly luciferase expression or activity, dose response, H4 neuroglioma cells, luminescence (AID 1990); assay type: functional, cell-based
[8] = cytotoxicity in HEK-293T cells, dose response, cytotoxicity control for BCR NF-kB inhibitor project, luminescence, B-cell screen hits (AID 489021); assay type: functional, cell-based;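 further: HEK-293T cells carrying an NF-kB luciferase reporter; cells exposed to compound for about 14 hours before viability readout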
[9] = inhibitors of SNCA 5'UTR-driven reporter translation, confirmation, H4 neuroglioma cells, luminescence (AID 1988); assay type: functional, cell-based
[10] = molecular target: T7, Heat shock factor protein 1 (Mus musculus, UniProt P38532); assay: inhibition of MG132-induced HSE-luciferase signal, confirmation, cell-based, NIH3T3, luminescence, dose retest (AID 2382); assay type: functional;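 further: NIH3T3 fibroblasts with HSF1-driven luciferase reporter stressed by proteasome inhibitor MG132; luminescence from HSF1-driven luciferase expression after 8 hours of MG132 stress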
T7 sequence (P38532 whole entry): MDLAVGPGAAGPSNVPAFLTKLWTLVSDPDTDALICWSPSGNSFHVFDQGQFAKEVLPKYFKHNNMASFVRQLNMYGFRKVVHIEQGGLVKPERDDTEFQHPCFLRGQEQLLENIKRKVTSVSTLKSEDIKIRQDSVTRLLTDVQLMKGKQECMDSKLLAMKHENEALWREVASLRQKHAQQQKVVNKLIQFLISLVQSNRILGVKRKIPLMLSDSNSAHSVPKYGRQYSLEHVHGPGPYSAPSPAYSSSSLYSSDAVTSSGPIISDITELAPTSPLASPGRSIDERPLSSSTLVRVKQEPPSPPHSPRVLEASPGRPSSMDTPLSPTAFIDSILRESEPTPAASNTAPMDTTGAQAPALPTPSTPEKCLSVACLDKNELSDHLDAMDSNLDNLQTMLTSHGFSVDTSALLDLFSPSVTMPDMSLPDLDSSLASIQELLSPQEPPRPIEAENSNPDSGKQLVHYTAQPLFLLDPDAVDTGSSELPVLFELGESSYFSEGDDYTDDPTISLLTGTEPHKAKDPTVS

[11] = molecular target: T7, Heat shock factor protein 1; assay: HSF1 potentiators in luciferase reporter cells, confirmation, cell-based, NIH3T3, luminescence, dose retest (AID 435004); assay type: functional;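 further: stress induced by proteasome inhibitor MG132 added 30 min after compound; luciferase reporter driven by HSF1 response element in NIH3T3 cells; actives raise luminescence as potentiators of the MG132 stress response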
[12] = molecular target: T8, Ubiquitin-conjugating enzyme E2 N (Homo sapiens, UniProt P61088); assay type: functional;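 further: Dose-response confirmation in a TR-FRET assay detecting UBC13-driven polyubiquitin chain formation, inhibition measured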
T8 sequence (P61088 whole entry): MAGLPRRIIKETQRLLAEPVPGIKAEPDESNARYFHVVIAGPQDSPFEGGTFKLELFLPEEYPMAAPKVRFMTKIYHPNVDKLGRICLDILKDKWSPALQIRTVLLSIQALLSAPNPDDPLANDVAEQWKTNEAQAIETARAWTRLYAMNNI

[13] = NIH-3T3 fibroblast cytotoxicity, dose response, cytotoxicity control, cell-based, fluorescence, Alamar Blue, secondary assay (AID 2327); assay type: functional;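 further: NIH-3T3 mouse fibroblasts cultured with fluconazole at 8 µg/mL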
[14] = inhibitors of intracellular T. cruzi replication, confirmation, NIH3T3 host cells, beta-gal luminescence (AID 2044); assay type: functional, cell-based;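 further: intracellular parasites grown in NIH/3T3 mouse fibroblasts as host cells; luminescent beta-galactosidase reporter signal from transgenic T. cruzi replicating inside host cells; inhibitors lower the luminescence signal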
[15] = cytotoxicity toward NIH3T3 fibroblasts, dose response, counter-screen, cell-based, ATP luminescence, mouse fibroblasts (AID 2010); assay type: functional;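 further: cells exposed to compound for about 90 hours before reading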

## CCN(CC)c1ncnc2scc(C3COc4ccccc4O3)c12 (stereo not drawn)
[1]
  IC50: 10.3 µM (not active)
[2]
  EC50: 5.31 µM (active)

## O=C(COC(=O)c1cccc(NC(=O)c2ccco2)c1)c1ccc(Br)cc1
[3]
  IC50: 8.37 µM (active)
Caspase-3
  IC50: 32.2 µM (active)
[4]
  IC50: 6.05 µM (active)
[5]
  IC50: 9.01 µM (active)

## COc1ncnc2sc3c(c12)CCCC3
[2]
  EC50: 5.96 µM (active)

## Cc1cccc(C(=O)Nc2ccc(CC(=O)O)cc2)c1
[6]
  EC50: 16.9 µM (active)
[7]
  EC50: 12.9 µM (active)
[8]
  IC50: > 80 µM (inactive)
[9]
  EC50: 28.5 µM (active)

## O=C(CCCc1nc(-c2ccccc2Cl)no1)NC1CCCC1
[10]
  EC50: > 195 µM (not active)
[6]
  EC50: 5.93 µM (active)
[7]
  EC50: 0.822 µM (active)
[8]
  IC50: > 80 µM (inactive)
[9]
  EC50: 0.606 µM (active)

## O=C(COC(=O)c1c(Cl)cccc1Cl)Nc1ccccc1Br
[2]
  EC50: 1.33 µM (active)

## COc1ccc(/C=C2\SC(=S)N(CCC(=O)Nc3cccc(O)c3)C2=O)cc1
[11]
  EC50: 58.8 µM (active)
[8]
  IC50: > 80 µM (inactive)

## O=C(CCCN1C(=O)/C(=C/c2ccccc2Cl)SC1=S)NNC(=O)c1ccc(Cl)cc1
[12]
  IC50: > 20 µM (inactive)
[8]
  IC50: > 80 µM (inactive)

## Cc1c(CCOC(=O)CC23CC4CC(CC(C4)C2)C3)sc[n+]1Cc1ccccc1
[2]
  EC50: 5.96 µM (active)
[13]
  EC50: > 160 µM (inactive)

## C#Cc1ccc(CN2CCCC(C(=O)Nc3ccccc3Oc3cccnc3)C2)cc1 (stereo not drawn)
[2]
  EC50: 1.68 µM (active)

## Cc1cccc2cc(CN(CCCN(C)C)C(S)=NCCc3ccccc3)c(O)nc12
[14]
  EC50: 0.69 µM (active)
[2]
  EC50: 4.22 µM (active)
[15]
  EC50: > 30 µM (not active)

## CC1CCN(CCCOc2ccc(OCc3ccccc3)cc2)CC1
[2]
  EC50: 0.531 µM (active)
